From patent US11819476B2, “Rapamycin analogs and uses thereof” (Janssen Pharmaceutica NV, priority 2019, dated 2023) come the findings set out here.

A value given as a limit tells only on which side of the number the result lay.

The assay relates to pS6K1 in MCF7. Nature of the assay: AlphaLISA Ultra pS6K1 Assay. The class given is cell-based. Particulars: Homo sapiens, 1.5 h; MCF7 cells, 90 min incubation. As to the method:
Example 74: AlphaLISA Ultra pS6K1 Assay
Assay Protocol: • 1. Seed MCF-7 cells in Corning 3701 plate and incubate for 20˜24 hour. 12,000˜16,000 cells will be seeded in 36 μL medium per well. • 2. Change the culture medium with fresh medium and incubate for another 2 hours. • 3. Add 12 μL (4×) compounds into the cell plate by HAMILTON. Final DMSO concentration is 0.5%. Incubate for 90 minutes. • 4. Aspirate 38 μL by HAMILTON, 10 μL rest per well. • 5. Add 10 μL 2× lysis buffer using HAMILTON; total volume in wells is 20 μL. Allow cells to shake for 30 min. Cover plate by plastic foil and store plate at −80° C. up to analysis. • 6. Thaw cell lysate at RT and transfer 10 μL lysate to assay plate (Optiplate-384). • 7. Add 5 μL acceptor beads into assay plate and incubation for 2 hours • 8. Add 5 μL donor beads and incubation for 2 hours • 9. Count the plate by EnSpire Multimode Plate Reader
The term IC50 denotes the concentration that gives 50% inhibition. Read a high IC50 as weaker potency in that assay. Consider `COCCSC1C[C@@H]2CC[C@@H](C)[C@@](O)(O2)C(=O)C(=O)N2CCCC[C@H]2C(=O)O[C@H]([C@H](C)C[C@@H]2CC[C@@H](O)[C@H](OC)C2)CC(=O)[C@H](C)/C=C(\C)[C@@H](O)[C@@H](OC)C(=O)[C@H](C)C[C@H](C)/C=C/C=C/C=C/1C` (stereo partly drawn) [Example I-31, (22E,24E,26E,27E,33R,34S,35R,36R,38S,40S,43S,44S,45R,54R)-44,54-dihydroxy-43-[(1R)-2-[(1S,3R,4R)-4-hydroxy-3-methoxy-cyclohexyl]-1-methyl-ethyl]-45-methoxy-42-[2-(2-methoxyethoxy)ethylsulfanyl]-33,34,35,36,46,47-hexamethyl-64,65-dioxa-55-azatricyclohexatriaconta-22,24,26(46),27(47)-tetraene-48,49,50,51,52-pentone], for which the IC50 is 1 to 10 nM.

Compound `CO[C@@H]1C[C@H](C[C@@H](C)[C@@H]2CC(=O)[C@H](C)/C=C(\C)[C@@H](O)[C@@H](OC)C(=O)[C@H](C)C[C@H](C)/C=C/C=C/C=C(\C)C(OCCOC3COC3)C[C@@H]3CC[C@@H](C)[C@@](O)(O3)C(=O)C(=O)N3CCCC[C@H]3C(=O)O2)CC[C@H]1OCCO` (stereo partly drawn) [Example I-14, (23E,25E,27E,28E,34R,35S,36R,37R,39S,41S,44S,46R,47R,56R)-46,56-dihydroxy-44-[(1R)-2-[(1S,3R,4R)-4-(2-hydroxyethoxy)-3-methoxy-cyclohexyl]-1-methyl-ethyl]-47-methoxy-34,35,36,37,48,49-hexamethyl-43-[2-(oxetan-3-yloxy)ethoxy]-67,68-dioxa-57-azatricyclohexatriaconta-23,25,27(48),28(49)-tetraene-50,51,52,53,54-pentone] gave an IC50 of 0.1 to 1 nM.

On to `CO[C@@H]1C[C@H](C[C@@H](C)[C@@H]2CC(=O)[C@H](C)/C=C(\C)[C@@H](O)[C@@H](OC)C(=O)[C@H](C)C[C@H](C)/C=C/C=C/C=C(\C)C(OCCOc3ccccc3)C[C@@H]3CC[C@@H](C)[C@@](O)(O3)C(=O)C(=O)N3CCCC[C@H]3C(=O)O2)CC[C@H]1OCCO` (stereo partly drawn) [Example I-12, (26E,28E,30E,31E,38R,39S,40R,41R,43S,45S,48S,49R,50R,59R)-49,59-dihydroxy-48-[(1R)-2-[(1S,3R,4R)-4-(2-hydroxyethoxy)-3-methoxy-cyclohexyl]-1-methyl-ethyl]-50-methoxy-38,39,40,41,51,52-hexamethyl-47-(2-phenoxyethoxy)-69,70-dioxa-60-azatricyclohexatriaconta-26,28,30(51),31(52)-tetraene-53,54,55,56,57-pentone], for which the IC50 lay within 0.1 to 1 nM.

In the case of `CO[C@@H]1C[C@H](C[C@@H](C)[C@@H]2CC(=O)[C@H](C)/C=C(\C)[C@@H](O)[C@@H](OC)C(=O)[C@H](C)C[C@H](C)/C=C/C=C/C=C(\C)[C@H](OCCOc3ccccc3)C[C@@H]3CC[C@@H](C)[C@@](O)(O3)C(=O)C(=O)N3CCCC[C@H]3C(=O)O2)CC[C@H]1OCCO` [Example I-6, (26E,28E,30E,31E,38R,39S,40R,41R,43S,45S,47R,48S,49R,50R,59R)-49,59-dihydroxy-48-[(1R)-2-[(1S,3R,4R)-4-(2-hydroxyethoxy)-3-methoxy-cyclohexyl]-1-methyl-ethyl]-50-methoxy-38,39,40,41,51,52-hexamethyl-47-(2-phenoxyethoxy)-69,70-dioxa-60-azatricyclohexatriaconta-26,28,30(51),31(52)-tetraene-53,54,55,56,57-pentone], the 50% inhibitory concentration (IC50) lay within 1 to 10 nM.

On to `CO[C@@H]1C[C@H](C[C@@H](C)[C@@H]2CC(=O)[C@H](C)/C=C(\C)[C@@H](O)[C@@H](OC)C(=O)[C@H](C)C[C@H](C)/C=C/C=C/C=C(\C)C(OCC3CCCCC3)C[C@@H]3CC[C@@H](C)[C@@](O)(O3)C(=O)C(=O)N3CCCC[C@H]3C(=O)O2)CC[C@H]1OCCO` (stereo partly drawn) [Example I-10, (26E,28E,30E,31E,36R,37S,38R,39R,42S,44S,47S,48R,49R,58R)-46-(cyclohexylmethoxy)-48,58-dihydroxy-47-[(1R)-2-[(1S,3R,4R)-4-(2-hydroxyethoxy)-3-methoxy-cyclohexyl]-1-methyl-ethyl]-49-methoxy-36,37,38,39,50,51-hexamethyl-68,69-dioxa-59-azatricyclohexatriaconta-26,28,30(50),31(51)-tetraene-52,53,54,55,56-pentone], for which the 50% inhibitory concentration (IC50) is 1 to 10 nM.

As for `CO[C@@H]1C[C@H](C[C@@H](C)[C@@H]2CC(=O)[C@H](C)/C=C(\C)[C@@H](O)[C@@H](OC)C(=O)[C@H](C)C[C@H](C)/C=C/C=C/C=C(\C)C(OCC3CCCCO3)C[C@@H]3CC[C@@H](C)[C@@](O)(O3)C(=O)C(=O)N3CCCC[C@H]3C(=O)O2)CC[C@H]1OCCO` (stereo partly drawn) [Example I-11, (25E,27E,29E,30E,35R,36S,37R,38R,40S,43S,46S,47R,48R,57R)-47,57-dihydroxy-46-[(1R)-2-[(1S,3R,4R)-4-(2-hydroxyethoxy)-3-methoxy-cyclohexyl]-1-methyl-ethyl]-48-methoxy-35,36,37,38,49,50-hexamethyl-45-(tetrahydropyran-2-ylmethoxy)-68,69-dioxa-58-azatricyclohexatriaconta-25,27,29(49),30(50)-tetraene-51,52,53,54,55-pentone], the IC50 was < 0.1 nM.

For the compound `CO[C@@H]1C[C@H](C[C@@H](C)[C@@H]2CC(=O)[C@H](C)/C=C(\C)[C@@H](O)[C@@H](OC)C(=O)[C@H](C)C[C@H](C)/C=C/C=C/C=C(\C)C(OCCCC(=O)O)C[C@@H]3CC[C@@H](C)[C@@](O)(O3)C(=O)C(=O)N3CCCC[C@H]3C(=O)O2)CC[C@H]1OCCO` (stereo partly drawn) [Example I-30, 4-[[(21E,23E,25E,26E,33R,34S,35R,36R,38S,40S,43S,44R,45R,55R)-44,55-dihydroxy-43-[(1R)-2-[(1S,3R,4R)-4-(2-hydroxyethoxy)-3-methoxy-cyclohexyl]-1-methyl-ethyl]-45-methoxy-33,34,35,36,46,47-hexamethyl-48,49,50,51,52-pentaoxo-67,68-dioxa-56-azatricyclohexatriaconta-21,23,25(46),26(47)-tetraen-42-yl]oxy]butanoic acid], the IC50 is ≥ 100 nM.

`CO[C@@H]1C[C@H](C[C@@H](C)[C@@H]2CC(=O)[C@H](C)/C=C(\C)[C@@H](O)[C@@H](OC)C(=O)[C@H](C)C[C@H](C)/C=C/C=C/C=C(\C)C(NC(=O)OCCOCCO)C[C@@H]3CC[C@@H](C)[C@@](O)(O3)C(=O)C(=O)N3CCCC[C@H]3C(=O)O2)CC[C@H]1O` (stereo partly drawn) [Example I-32, 2-(2-hydroxyethoxy)ethyl N-[(21E,23E,25E,26E,32R,33S,34R,35R,37S,39S,42S,43R,44R,54R)-43,54-dihydroxy-42-[(1R)-2-[(1S,3R,4R)-4-hydroxy-3-methoxy-cyclohexyl]-1-methyl-ethyl]-44-methoxy-32,33,34,35,45,46-hexamethyl-47,48,49,50,51-pentaoxo-67,68-dioxa-56-azatricyclohexatriaconta-21,23,25(45),26(46)-tetraen-41-yl]carbamate]: the half-inhibitory concentration (IC50) was 1 to 10 nM.

Compound `CO[C@@H]1C[C@H](C[C@@H](C)[C@@H]2CC(=O)[C@H](C)/C=C(\C)[C@@H](O)[C@@H](OC)C(=O)[C@H](C)C[C@H](C)/C=C/C=C/C=C(\C)[C@H](OCCCC(N)=O)C[C@@H]3CC[C@@H](C)[C@@](O)(O3)C(=O)C(=O)N3CCCC[C@H]3C(=O)O2)CC[C@H]1OCCO` [Example I-28, 4-[[(21E,23E,25E,26E,33R,34S,35R,36R,38S,40S,42R,43S,44R,45R,55R)-44,55-dihydroxy-43-[(1R)-2-[(1S,3R,4R)-4-(2-hydroxyethoxy)-3-methoxy-cyclohexyl]-1-methyl-ethyl]-45-methoxy-33,34,35,36,46,47-hexamethyl-48,49,50,51,52-pentaoxo-67,68-dioxa-57-azatricyclohexatriaconta-21,23,25(46),26(47)-tetraen-42-yl]oxy]butanamide] registered an IC50 of 10 to 100 nM.

`CO[C@@H]1C[C@H](C[C@@H](C)[C@@H]2CC(=O)[C@H](C)/C=C(\C)[C@@H](O)[C@@H](OC)C(=O)[C@H](C)C[C@H](C)/C=C/C=C/C=C(\C)[C@H](OCCOC3COC3)C[C@@H]3CC[C@@H](C)[C@@](O)(O3)C(=O)C(=O)N3CCCC[C@H]3C(=O)O2)CC[C@H]1OCCO` [Example I-8, (23E,25E,27E,28E,34R,35S,36R,37R,39S,41S,43R,44S,46R,47R,56R)-46,56-dihydroxy-44-[(1R)-2-[(1S,3R,4R)-4-(2-hydroxyethoxy)-3-methoxy-cyclohexyl]-1-methyl-ethyl]-47-methoxy-34,35,36,37,48,49-hexamethyl-43-[2-(oxetan-3-yloxy)ethoxy]-67,68-dioxa-57-azatricyclohexatriaconta-23,25,27(48),28(49)-tetraene-50,51,52,53,54-pentone] returned an IC50 of 1 to 10 nM.

In the case of `COCCOc1ccc(C2C[C@@H]3CC[C@@H](C)[C@@](O)(O3)C(=O)C(=O)N3CCCC[C@H]3C(=O)O[C@H]([C@H](C)C[C@@H]3CC[C@@H](O)[C@H](OC)C3)CC(=O)[C@H](C)/C=C(\C)[C@H](O)[C@@H](OC)C(=O)[C@H](C)C[C@H](C)/C=C/C=C/C=C/2C)c(OC)c1` (stereo partly drawn) [Example I-24, (26E,28E,30E,31E,38R,39S,40R,41R,43S,45S,48S,49S,50R,59R)-49,59-dihydroxy-48-[(1R)-2-[(1S,3R,4R)-4-hydroxy-3-methoxy-cyclohexyl]-1-methyl-ethyl]-50-methoxy-46-[2-methoxy-4-(2-methoxyethoxy)phenyl]-38,39,40,41,51,52-hexamethyl-69,70-dioxa-60-azatricyclohexatriaconta-26,28,30(51),31(52)-tetraene-53,54,55,56,57-pentone], the half-maximal inhibitory concentration (IC50) is 1 to 10 nM.
